{
  "source": "ChEMBL document CHEMBL2086254",
  "about": "“Synthesis and identification of novel indolo[2,3-a]pyrimido[5,4-c]carbazoles as a new class of anti-cancer agents” (Eur J Med Chem, 2012)",
  "format_in_all_cases": "functional",
  "key": {"PC-3": {"test_system": "PC-3", "test": "Cytotoxicity against human PC3 cells after 48 hrs by SRB assay", "settings": "PC-3, 48 h"}, "KM12": {"test_system": "KM12", "test": "Cytotoxicity against human KM12 cells after 48 hrs by SRB assay", "settings": "KM12, 48 h"}, "SW-620": {"test_system": "SW-620", "test": "Cytotoxicity against human SW620 cells after 48 hrs by SRB assay", "settings": "SW-620, 48 h"}, "Malme-3M": {"test_system": "Malme-3M", "test": "Cytotoxicity against human MALME-3M cells after 48 hrs by SRB assay"}, "M14": {"test_system": "M14", "test": "Cytotoxicity against human M14 cells after 48 hrs by SRB assay", "settings": "M14, 48 h"}, "MDA-MB-435": {"test_system": "MDA-MB-435", "test": "Cytotoxicity against human MDA-MB-435 cells after 48 hrs by SRB assay", "settings": "MDA-MB-435, 48 h"}, "K562": {"test_system": "K562", "test": "Cytotoxicity against human K562 cells after 48 hrs by SRB assay", "settings": "K562, 48 h"}, "NCI-H460": {"test_system": "NCI-H460", "test": "Cytotoxicity against human NCI-H460 cells after 48 hrs by SRB assay", "settings": "NCI-H460, 48 h"}, "EKVX": {"test_system": "EKVX", "test": "Cytotoxicity against human EKVX cells after 48 hrs by SRB assay"}, "SF-268": {"test_system": "SF-268", "test": "Cytotoxicity against human SF268 cells after 48 hrs by SRB assay", "settings": "SF-268, 48 h"}, "CCRF-CEM": {"test_system": "CCRF-CEM", "test": "Cytotoxicity in human CCRF-CEM cells after 48 hrs by SRB assay"}, "MCF7": {"test_system": "MCF7", "test": "Cytotoxicity against human MCF7 cells after 48 hrs by SRB assay", "settings": "MCF7, 48 h"}, "HCT-15": {"test_system": "HCT-15", "test": "Cytotoxicity against human HCT15 cells after 48 hrs by SRB assay", "settings": "HCT-15, 48 h"}, "786-0": {"test_system": "786-0", "test": "Cytotoxicity against human 786-0 cells after 48 hrs by SRB assay", "settings": "786-0, 48 h"}, "NCI/ADR-RES": {"test_system": "NCI/ADR-RES", "test": "Cytotoxicity against human NCI/ADR-RES cells after 48 hrs by SRB assay"}, "HOP-92": {"test_system": "HOP-92", "test": "Cytotoxicity against human HOP92 cells assessed as cell growth at 10 uM after 48 hrs by SRB assay relative to control", "settings": "HOP-92, 48 h, read-out: Activity"}, "[1]": {"settings": "read-out: LC50 (the source's name)"}},
  "data": [
    {"smiles": "Cn1c2ccccc2c2c3nc(N)[nH]c(=O)c3c3c4ccccc4n(C)c3c21", "values": [
      {"measurement": "GI50", "setting": "PC-3", "value": 5.54, "unit": "µM"},
      {"measurement": "TGI", "setting": "PC-3", "value": "> 100", "unit": "µM"},
      {"measurement": "CC50", "setting": "PC-3; [1]", "value": "> 100", "unit": "µM"},
      {"measurement": "GI50", "setting": "KM12", "value": 3.24, "unit": "µM"},
      {"measurement": "TGI", "setting": "KM12", "value": 32.3, "unit": "µM"},
      {"measurement": "CC50", "setting": "KM12; [1]", "value": "> 100", "unit": "µM"},
      {"measurement": "GI50", "setting": "SW-620", "value": 4.05, "unit": "µM"},
      {"measurement": "TGI", "setting": "SW-620", "value": "> 100", "unit": "µM"},
      {"measurement": "CC50", "setting": "SW-620; [1]", "value": "> 100", "unit": "µM"},
      {"measurement": "GI50", "setting": "Malme-3M", "value": 14.5, "unit": "µM"},
      {"measurement": "TGI", "setting": "Malme-3M", "value": 74.8, "unit": "µM"},
      {"measurement": "CC50", "setting": "Malme-3M; [1]", "value": "> 100", "unit": "µM"},
      {"measurement": "GI50", "setting": "M14", "value": 3.36, "unit": "µM"},
      {"measurement": "TGI", "setting": "M14", "value": 89.6, "unit": "µM"},
      {"measurement": "CC50", "setting": "M14; [1]", "value": "> 100", "unit": "µM"},
      {"measurement": "GI50", "setting": "MDA-MB-435", "value": 3.39, "unit": "µM"},
      {"measurement": "TGI", "setting": "MDA-MB-435", "value": 22.3, "unit": "µM"},
      {"measurement": "CC50", "setting": "MDA-MB-435; [1]", "value": "> 100", "unit": "µM"},
      {"measurement": "GI50", "setting": "K562", "value": 3.93, "unit": "µM"},
      {"measurement": "TGI", "setting": "K562", "value": 40.3, "unit": "µM"},
      {"measurement": "CC50", "setting": "K562; [1]", "value": "> 100", "unit": "µM"},
      {"measurement": "GI50", "setting": "NCI-H460", "value": 3.06, "unit": "µM"},
      {"measurement": "TGI", "setting": "NCI-H460", "value": "> 100", "unit": "µM"},
      {"measurement": "CC50", "setting": "NCI-H460; [1]", "value": "> 100", "unit": "µM"},
      {"measurement": "GI50", "setting": "EKVX", "value": 12.7, "unit": "µM"},
      {"measurement": "TGI", "setting": "EKVX", "value": "> 100", "unit": "µM"},
      {"measurement": "CC50", "setting": "EKVX; [1]", "value": "> 100", "unit": "µM"},
      {"measurement": "GI50", "setting": "SF-268", "value": 15.8, "unit": "µM"},
      {"measurement": "TGI", "setting": "SF-268", "value": "> 100", "unit": "µM"},
      {"measurement": "CC50", "setting": "SF-268; [1]", "value": "> 100", "unit": "µM"},
      {"measurement": "GI50", "setting": "CCRF-CEM", "value": 3.41, "unit": "µM"},
      {"measurement": "TGI", "setting": "CCRF-CEM", "value": "> 100", "unit": "µM"},
      {"measurement": "CC50", "setting": "CCRF-CEM; [1]", "value": "> 100", "unit": "µM"},
      {"measurement": "GI50", "setting": "MCF7", "value": 2.13, "unit": "µM"},
      {"measurement": "TGI", "setting": "MCF7", "value": 44.1, "unit": "µM"},
      {"measurement": "CC50", "setting": "MCF7; [1]", "value": "> 100", "unit": "µM"},
      {"measurement": "GI50", "setting": "HCT-15", "value": 1.98, "unit": "µM"},
      {"measurement": "TGI", "setting": "HCT-15", "value": "> 100", "unit": "µM"},
      {"measurement": "CC50", "setting": "HCT-15; [1]", "value": "> 100", "unit": "µM"},
      {"measurement": "GI50", "setting": "786-0", "value": 7.7, "unit": "µM"},
      {"measurement": "TGI", "setting": "786-0", "value": 54.4, "unit": "µM"},
      {"measurement": "CC50", "setting": "786-0; [1]", "value": "> 100", "unit": "µM"},
      {"measurement": "GI50", "setting": "NCI/ADR-RES", "value": 3.87, "unit": "µM"},
      {"measurement": "TGI", "setting": "NCI/ADR-RES", "value": "> 100", "unit": "µM"},
      {"measurement": "CC50", "setting": "NCI/ADR-RES; [1]", "value": "> 100", "unit": "µM"}
    ]},
    {"smiles": "Cn1cc(-c2[nH]c(=S)[nH]c(=O)c2-c2cn(C)c3ccccc23)c2ccccc21", "values": [
      {"measurement": "growth at 10 µM", "setting": "HOP-92", "value": 69.8, "unit": "%"}
    ]}
  ]
}
